Assay results published in patent US9273075B2, “Prodrugs of 1,4-benzodiazepinone compounds” (BRISTOL-MYERS SQUIBB COMPANY, priority 2012, dated 2016).
≈ marks a conversion by molar mass, not a printed value. Read-outs that look alike come from different tables or passages of the source.

Legend:
Solution Stability Assay = assay type: physicochemical
Experimental: Acetonitrile Stock Solution: Acetonitrile Stock Solution of the prodrug was prepared by dissolving 1.5-2.0 mg of weighted compound in 5.0 mL of acetonitrile in a 5 mL volumetric flask.
pH 6.5 Buffer Working Solution: A pH 6.5 Buffer Working Solution of drug was prepared by adding 1.5 mL of the Acetonitrile Stock Solution to 3.5 mL of stability buffer (50 mM potassium phosphate, pH 6.5) in a 10 mL vial, and mixing. Using a 3 mL syringe, ˜3 mL of solution was withdrawn and filtered using the Gelman 0.45 μm syringe filter into a clean 1.5 mL LC vial. This filtered solution will was used to evaluate the prodrug degradation throughout the course of the study. Target concentration: 90-120 μg/mL (70% Aqueous: 30% Acetonitrile)
pH 4.0 Acidic Working Solution: A pH 4.0 Working Solution of drug was prepared by adding 1.5 mL of the Acetonitrile Stock Solution to 3.5 mL of stability buffer (50 mM sodium acetate, pH 4.0) in a 10 mL vial and mixing. Using a 3 mL syringe, ˜3 mL of solution was withdrawn and filtered using the Gelman 0.45 μm syringe filter into a clean 1.5 mL LC vial. This filtered solution was used to evaluate the prodrug degradation throughout the course of the study. Target concentration: 90-120 μg/mL (70% Aqueous: 30% Acetonitrile)
Experimental Methods: Following the sample preparation procedure described above a single sample (n=1) was prepared for each pH condition. The samples were then placed in an HPLC autosampler maintained at 37° C. and samples were analyzed over a 24 h period. Prodrug remaining (%) was reported relative to the initial peak area (t=0 h). In cases where a conversion to parent half-life could be calculated, a t1/2 was generated. Confirmation of the conversion to parent from the prodrug was obtained by LCMS and HPLC analysis of the final timepoint samples.
Typical LC parameters are shown below: • HPLC System: HP1100 Series, Hewlett Packard., Heated autosampler • Analytical column: Synergi 4 u Hydro C18, 4.6 mm×5.0 cm, PHENOMENEX® • Column temperature: 40° C. • Autosampler temp: 37° C. • Flow rate: 1.0 mL/min • Injection Volume: 10 μL • Mobile Phase: A: Acetonitrile • B: 0.1% Phosphoric acid in water • Run Time: 14.0 minutes Typical LCMS parameters are shown below: • LC-MS System: Surveyor HPLC system, ThermoFinnigan LCQ Deca XP Max (Ion trap) • Analytical column: Synergi 4 u Hydro C18, 4.6 mm×5.0 cm, PHENOMENEX® • Column temperature: 40° C. • Autosampler temp: 22° C. • Flow rate: 1.0 mL/min • Injection Volume: 5 μL • Mobile Phase: A: 95% Acetonitrile/5% 20 mM Ammonium Acetate • B: 5% Acetonitrile/95% 20 mM Ammonium Acetate LCQ Parameters: • Sheath Flow Rate: 81.64 • Aux/Sweep Flow Rate: 19.01 • Current (uA): 10.89 • Voltage (kV): 5.00 • Capillary (C): 348.10 • Capillary Voltage (V): 30.44

[1] = Thermodynamic Equilibrium Aqueous Solubility Assay; assay type: physicochemical; details: thermodynamic from solid
Experimental: Standards Preparation: The calibration standard was prepared by accurately weighing 0.5-0.7 mg of sample in 5 ml of methanol. If the material was not fully soluble in methanol, other solvents such as DMSO or mixed solvents were used.
Test Sample Preparation: An excess amount of powder prodrug was equilibrated with 1 mL of buffer (50 mM potassium phosphate, pH 6.5 and 50 mM sodium acetate, pH 4.0) in a 2 mL glass vial. The solution was sonicated and vortexed for ˜30 seconds. The vials were shaken at 300 rpm at room temperature for 24 hrs. The exact incubation time for a specific prodrug was based on the prior aqueous stability data. If the compound was stable in the buffer up to 24 hrs, then the solubility was measured after 24 hrs, otherwise kinetic solubility data was reported. The final saturated solution was then transferred to a 1.5 mL Eppendorf tube and centrifuged for ˜2 min. at 10000 rpms. The supernatant from the saturated solution was transferred to a glass HPLC vial and the solubility was analyzed by HPLC using a four point calibration curve.

[2] = potassium phosphate buffer with 30% acetonitrile, pH 6.5, read-out: Stability (t1/2, h) pH 6.5 (converted)
[3] = sodium acetate buffer with 30% acetonitrile, pH 4, read-out: Stability (t1/2, h) pH 4.0 (converted)
[4] = potassium phosphate buffer, pH 6.5, aqueous buffer, read-out: Solubility (mg/mL) pH 6.5
[5] = sodium acetate buffer, pH 4, aqueous buffer, read-out: Solubility (mg/mL) pH 4.0

SMILES | half-life (Solution Stability Assay; [2]) [h] | half-life (Solution Stability Assay; [3]) [h] | solubility at 24 h [1, 4] [mg/mL] | solubility at 24 h [1, 5] [mg/mL]
NC(=O)[C@@H](CCC(F)(F)F)[C@@H](CCC(F)(F)F)C(=O)N[C@H]1N=C(c2ccccc2)c2ccccc2N(COC(=O)Cc2ccc(OP(=O)(O)O)cc2)C1=O [Example 1, ((3S)-3-(((2R,3S)-3-Carbamoyl-6,6,6-trifluoro-2-(3,3,3-trifluoropropyl)hexanoyl)amino)-2-oxo-5-phenyl-2,3-dihydro-1H-1,4-benzodiazepin-1-yl)methyl (4-(phosphonooxy)phenyl)acetate] | > 500 | > 500 | > 1.22 | 0.01 (≈ 12.7 µM)
NC(=O)[C@@H](CCC(F)(F)F)[C@@H](CCC(F)(F)F)C(=O)N[C@H]1N=C(c2ccccc2)c2ccccc2N(COC(=O)c2ccc(COP(=O)(O)O)cc2)C1=O [Example 2, ((3S)-3-(((2R,3S)-3-Carbamoyl-6,6,6-trifluoro-2-(3,3,3-trifluoropropyl)hexanoyl)amino)-2-oxo-5-phenyl-2,3-dihydro-1H-1,4-benzodiazepin-1-yl)methyl 4-((phosphonooxy)methyl)benzoate] | > 500 | > 500 | 0.42 (≈ 534 µM) | 0.99 (≈ 1260 µM)
Cc1cc(C)c(C(C)(C)CC(=O)OCN2C(=O)[C@@H](NC(=O)[C@H](CCC(F)(F)F)[C@H](CCC(F)(F)F)C(N)=O)N=C(c3ccccc3)c3ccccc32)c(OP(=O)(O)O)c1 [Example 3, (3-(((2R,3S)-3-Carbamoyl-6,6,6-trifluoro-2-(3,3,3-trifluoropropyl)hexanoyl)amino)-2-oxo-5-phenyl-2,3-dihydro-1H-1,4-benzodiazepin-1-yl)methyl 3-(2,4-dimethyl-6-(phosphonooxy)phenyl)-3-methylbutanoate] | > 500 | > 500 | > 0.52 | > 0.28
CC(C)(N)C(=O)OCN1C(=O)[C@@H](NC(=O)[C@H](CCC(F)(F)F)[C@H](CCC(F)(F)F)C(N)=O)N=C(c2ccccc2)c2ccccc21 [Example 4, ((3S)-3-(((2R,3S)-3-Carbamoyl-6,6,6-trifluoro-2-(3,3,3-trifluoropropyl)hexanoyl)amino)-2-oxo-5-phenyl-2,3-dihydro-1H-1,4-benzodiazepin-1-yl)methyl 2-methylalaninate] | 8 | 64 | > 1.07 | > 3.23
C[C@H](N)C(=O)OCN1C(=O)[C@@H](NC(=O)[C@H](CCC(F)(F)F)[C@H](CCC(F)(F)F)C(N)=O)N=C(c2ccccc2)c2ccccc21 [Example 5, ((3S)-3-(((2R,3S)-3-Carbamoyl-6,6,6-trifluoro-2-(3,3,3-trifluoropropyl)hexanoyl)amino)-2-oxo-5-phenyl-2,3-dihydro-1H-1,4-benzodiazepin-1-yl)methyl L-alaninate] | 5 | 92 | 3.2 (≈ 4970 µM) | 2.3 (≈ 3570 µM)
CC(C)[C@H](N)C(=O)OCN1C(=O)[C@@H](NC(=O)[C@H](CCC(F)(F)F)[C@H](CCC(F)(F)F)C(N)=O)N=C(c2ccccc2)c2ccccc21 [Example 6, ((3S)-3-(((2R,3S)-3-Carbamoyl-6,6,6-trifluoro-2-(3,3,3-trifluoropropyl)hexanoyl)amino)-2-oxo-5-phenyl-2,3-dihydro-1H-1,4-benzodiazepin-1-yl)methyl L-valinate] | 41 | > 500 | 0.5 (≈ 744 µM) | 0.3 (≈ 447 µM)
NC(=O)[C@@H](CCC(F)(F)F)[C@@H](CCC(F)(F)F)C(=O)N[C@H]1N=C(c2ccccc2)c2ccccc2N(COC(=O)C2(N)CC2)C1=O [Example 7, ((3S)-3-(((2R,3S)-3-Carbamoyl-6,6,6-trifluoro-2-(3,3,3-trifluoropropyl)hexanoyl)amino)-2-oxo-5-phenyl-2,3-dihydro-1H-1,4-benzodiazepin-1-yl)methyl 1-aminocyclopropanecarboxylate] | > 500 | > 500 | 2.09 (≈ 3190 µM) | 1.78 (≈ 2720 µM)
NCCSNC(=O)[C@@H](CCC(F)(F)F)[C@@H](CCC(F)(F)F)C(=O)N[C@H]1N=C(c2ccccc2)c2ccccc2NC1=O [Example 8, (2S,3R)—N-((2-Aminoethyl)sulfanyl)-N′-((3S)-2-oxo-5-phenyl-2,3-dihydro-1H-1,4-benzodiazepin-3-yl)-2,3-bis(3,3,3-trifluoropropyl)succinamide] | 334 | > 500 | > 0.47 | 0.52 (≈ 842 µM)
N[C@@H](CSNC(=O)[C@@H](CCC(F)(F)F)[C@@H](CCC(F)(F)F)C(=O)N[C@H]1N=C(c2ccccc2)c2ccccc2NC1=O)C(=O)O [Example 9, S-(((2S,3R)-6,6,6-Trifluoro-3-(((3S)-2-oxo-5-phenyl-2,3-dihydro-1H-1,4-benzodiazepin-3-yl)carbamoyl)-2-(3,3,3-trifluoropropyl)hexanoyl)amino)-L-cysteine] | 58 | 335 | 0.64 (≈ 967 µM) | 0.75 (≈ 1130 µM)
CC(C)CNCNC(=O)[C@@H](CCC(F)(F)F)[C@@H](CCC(F)(F)F)C(=O)N[C@H]1N=C(c2ccccc2)c2ccccc2N(C)C1=O [Example 10, (2S,3R)—N-((Isobutylamino)methyl)-N′-((3S)-1-methyl-2-oxo-5-phenyl-2,3-dihydro-1H-1,4-benzodiazepin-3-yl)-2,3-bis(3,3,3-trifluoropropyl)succinamide] | 32 | – | < 0.001 | > 0.27
CN1C(=O)[C@@H](NC(=O)[C@H](CCC(F)(F)F)[C@H](CCC(F)(F)F)C(=O)NSCCN)N=C(c2ccccc2)c2ccccc21 [Example 11, (2S,3R)—N-((2-Aminoethyl)sulfanyl)-N′-((3S)-1-methyl-2-oxo-5-phenyl-2,3-dihydro-1H-1,4-benzodiazepin-3-yl)-2,3-bis(3,3,3-trifluoropropyl)succinamide] | 29 | 215 | > 3.4 | > 2.67
CN(C)CCSNC(=O)[C@@H](CCC(F)(F)F)[C@@H](CCC(F)(F)F)C(=O)N[C@H]1N=C(c2ccccc2)c2ccccc2N(C)C1=O [Example 13, (2S,3R)—N-((2-(Dimethylamino)ethyl)sulfanyl)-N′-((3S)-1-methyl-2-oxo-5-phenyl-2,3-dihydro-1H-1,4-benzodiazepin-3-yl)-2,3-bis(3,3,3-trifluoropropyl)succinamide] | 108 | 334 | 0.94 (≈ 1420 µM) | > 0.92
COC(=O)[C@@H](N)CSNC(=O)[C@@H](CCC(F)(F)F)[C@@H](CCC(F)(F)F)C(=O)N[C@H]1N=C(c2ccccc2)c2ccccc2N(C)C1=O [Example 14, Methyl S-(((2S,3R)-6,6,6-trifluoro-3-(((3S)-1-methyl-2-oxo-5-phenyl-2,3-dihydro-1H-1,4-benzodiazepin-3-yl)carbamoyl)-2-(3,3,3-trifluoropropyl)hexanoyl)amino)-L-cysteinate] | 44 | 73 | 0.02 (≈ 29 µM) | 0.42 (≈ 609 µM)
